According to patent publication US20180028478A1, “ANTIVIRAL COMPOSITIONS DIRECTED AGAINST THE NUCLEOPROTEIN OF INFLUENZA VIRUSES” (priority 2011, published 2018):

How the values were obtained:
NP WT = NP WT (Influenza A virus, UniProt P15682, A237T/A472T/G34D/M105R/P283S); format: binding, type-A Influenza virus (H1N1 A/WSN/1933)
NP R152A = NP R152A (Influenza A virus, UniProt P15682, R152A); format: binding, type-A Influenza virus
NP Y148A = NP Y148A (Influenza A virus, UniProt P15682, Y148A)
[1] = target: nucleoprotein of SEQ ID NO: 2 (Influenza A virus, UniProt P15682, A237T/A472T/G34D/M105R/P283S)
NP = NP (Influenza A virus, UniProt P15682, A237T/A472T/G34D/M105R/P283S)
NP R416A mutant = NP R416A mutant (Influenza A virus, UniProt P15682, R416A)
NP R361A [2] = target: T1, NP R361A (Influenza A virus, UniProt P15682, R361A)
NP R361A [3] = target: T1, NP R361A; remark: listed apart in the source

Row | Compound | competition with the association of RNA to NP (signal of NP-RNA complex) (NP WT) | effect of R152A mutation on affinity (NP R152A) | competition with the RNA (NP Y148A) | beacon fluorescence in the presence of compound [1] | direct attachment to surface-bound protein (NP) | attachment to R416A mutant (NP R416A mutant) | direct attachment to surface-bound protein (NP R361A [2]) | competition with the RNA / attachment (NP R361A [3])
1 | COc1ccc2cc(C(CC(=O)O)CC(=O)O)ccc2c1 [Naproxen A] | biphasic effect | reduces the affinity |  |  |  |  |  | 
2 | COc1ccc2cc(-c3c(C(=O)O)cccc3C(=O)O)ccc2c1 [Naproxen c0] |  | reduces the affinity |  |  |  |  |  | 
3 | COc1ccc2cc(C(C)C(=O)O)ccc2c1 (centres unmarked) [Naproxen] | signal decrease | no effect | does not compete with the RNA any longer | fluorescence decreases | direct attachment | does not fix | but not to R361A | does not compete with the RNA any longer
